Experimental data from patent publication EP3287436B1, “COMPOUNDS AND COMPOSITIONS FOR USE IN THE TREATMENT OF BCAT1-MEDIATED DISEASES” (Ergon Pharmaceuticals LLC, priority 2016, dated 2018).
pIC50: −log10 of the molar value.

Columns and labels:
[1] = test system: TGF-β1-stimulated human fibroblasts; test: Inhibition of collagen I production/secretion (ELISA of conditioned media); format: cell-based; details: for concentration at which collagen I secretion is completely inhibited: Table 2; for factor of increase of the collagen inhibitory activity: relative to compound 7; for concentration at which collagen I secretion is inhibited: summary of Table 3
Description: In vitro fibrosis is assessed by measuring collagen synthesis after treatment of fibroblast cells with a profibrotic stimuli such as TGF-β1 or bleomycin. Collagen secretion into the media can be quantified in conditioned media using an appropriate ELISA kit.
Confluent monolayers of human fibroblasts, plated onto duplicate 35 mm dishes, were pretreated with various concentrations of compounds 2, 6, and 7 for 30 min followed by stimulation of the cells with 7 ng/mL TGF-β1 for 48 hrs. At the end of the experiment, conditioned media were collected and assessed for the presence of secreted collagen I, whereas cells were collected and lysed. Collagen I secretion was quantified using an ELISA kit from R&D Systems per the manufacturer's instructions and expressed as arbitrary absorbance units per µg of cell lysate. In Table 2, results are shown as % Control Collagen Production, defined as the amount of collagen I secreted per µg of cell lysate from fibroblast cultures stimulated with TGF-β1 in the absence of an inhibitor. […]
Confluent monolayers of human fibroblasts, plated onto duplicate 35 mm dishes, were pretreated with various concentrations of compounds 28 and 29 and Control Collagen Production determined according to the protocol set out in Example 5. In Table 3, results are shown as % Control Collagen Production, defined as the amount of collagen I secreted per µg of cell lysate from fibroblast cultures stimulated with TGF-β1 in the absence of an inhibitor. […]

[2] = target: T1, recombinant human BCAT1 (Homo sapiens, UniProt P54687); test: Inhibition of BCAT1 enzymatic activity (NADH consumption, coupled leucine dehydrogenase assay); format: biochemical; details: for remaining activity at 0.001 µM: compound concentration 1 nM; for remaining activity at 0.01 µM: compound concentration 10 nM; for remaining activity at 0.1 µM: compound concentration 100 nM; for pIC50: inhibition of the enzymatic activity of BCAT1, range stated for compounds 2, 7 and 8 together
T1 construct: purchased Abcam
T1 sequence (P54687 1-386): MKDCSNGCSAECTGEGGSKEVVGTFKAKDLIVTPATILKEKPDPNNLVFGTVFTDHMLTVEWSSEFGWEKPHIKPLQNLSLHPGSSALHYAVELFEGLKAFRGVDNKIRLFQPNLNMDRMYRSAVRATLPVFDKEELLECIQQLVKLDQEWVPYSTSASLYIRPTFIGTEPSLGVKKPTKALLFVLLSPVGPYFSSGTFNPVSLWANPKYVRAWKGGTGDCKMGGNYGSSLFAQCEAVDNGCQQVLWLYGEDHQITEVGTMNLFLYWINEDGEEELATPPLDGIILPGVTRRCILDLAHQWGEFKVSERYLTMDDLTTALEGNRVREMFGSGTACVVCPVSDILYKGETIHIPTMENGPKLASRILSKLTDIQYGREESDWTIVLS
Description: Inhibition of BCAT1 enzymatic activity by compounds 2. 7 and 8. The ability of the compounds as disclosed herein to inhibit BCAT1 enzymatic activity was confirmed spectrophotometrically. In this experiment, 0.2 to 0.5 µg of recombinant human BCAT1 from Abcam was added to 95 µL of a reaction buffer containing […] 5'-phosphate (PLP), 50 mM ammonium sulfate, 0.05 mM NADH, 5mM DTT, 5mM a-ketoglutarate, 10 mM leucine, and 0.95 U leucine dehydrogenase (EMD Chemicals) and various concentrations of compounds 2, 7 and 8. Addition of BCAT1 to the reaction mixture led to the consumption of NADH, which was measured fluorometrically (ex:330-370 nm; em:450 nm). The rate of change of fluorescence was then estimated over of period of 10 min (10 cycles; 1 cycle/min). The assay was performed in triplicate in a 96-well plate. In Table 1, the results were expressed as % Control Enzymatic Activity, which is defined as the BCAT1 activity observed in the reaction mixture in the absence of an inhibitor. […]

[3] = compound concentration 2 nM (as printed in Table 2), 30 min pretreatment, 7 ng/mL TGF-β1 for 48 hrs
[4] = compound concentration 5 nM (as printed in Table 2), 30 min pretreatment, 7 ng/mL TGF-β1 for 48 hrs
[5] = control = BCAT1 activity in the absence of an inhibitor
[6] = compound concentration 10 nM (as printed in Table 2), 30 min pretreatment, 7 ng/mL TGF-β1 for 48 hrs

Row | Structure (SMILES) | concentration at which collagen I secretion is completely inhibited [1] [mM] | % Control Collagen Production [1, 3] [%] | % Control Collagen Production [1, 4] [%] | remaining activity at 0.001 µM [2, 5] [%] | remaining activity at 0.01 µM [2, 5] [%] | remaining activity at 0.1 µM [2, 5] [%] | pIC50 [2] | % Control Collagen Production [1, 6] [%] | factor of increase of the collagen inhibitory activity [1] | concentration at which collagen I secretion is inhibited [1] [mM] | other results
1 | CC(=O)C(C)CC(Cc1ccccc1)C(=O)O (centres unmarked) [Compound 2, 2-benzyl-4-methyl-5-oxohexanoic acid] | 5 to 10 | 111 | 4 | 86 | 71 | 28 | 7.30 to 9.30 |  |  |  | 
2 | CC(CCC(=O)O)C(=O)c1ccccc1 (centres unmarked) [Compound 6, 4-methyl-5-oxo-5-phenylpentanoic acid] | 5 to 10 | 105 | 77 |  |  |  |  | 2 |  |  | 
3 | O=C(O)CCC(C(=O)c1ccccc1)c1ccccc1 (centres unmarked) [Compound 28, 5-oxo-4,5-diphenylpentanoic acid] |  |  |  |  |  |  |  |  | 2-5 | 2 | % Control Collagen Production ([1]; compound concentration 1 mM (Table 3), protocol of Example 5): 121%; % Control Collagen Production ([1]; compound concentration 2 mM (Table 3), protocol of Example 5): 18%; % Control Collagen Production ([1]; compound concentration 5 mM (Table 3), protocol of Example 5): 0%; % Control Collagen Production ([1]; compound concentration 10 mM (Table 3), protocol of Example 5): 0%
4 | O=C(O)CCC(C(=O)c1ccc(Br)cc1)c1ccccc1 (centres unmarked) [Compound 29, 5-(4-bromophenyl)-5-oxo-4-phenylpentanoic acid] |  |  |  |  |  |  |  |  | 100 | 0.1 | % Control Collagen Production ([1]; compound concentration 0.01 mM (Table 3), protocol of Example 5): 88%; % Control Collagen Production ([1]; compound concentration 0.05 mM (Table 3), protocol of Example 5): 71%; % Control Collagen Production ([1]; compound concentration 0.1 mM (Table 3), protocol of Example 5): 8%
5 | CC(=O)C(CCC(=O)O)c1ccccc1 (centres unmarked) [Compound 7, 5-oxo-4-phenylhexanoic acid] | 5 to 10 | 150 | 41 | 67 | 0 | 0 | 7.30 to 9.30 | 2 |  | 5 to 10 | 
6 | CC(=O)C(C)CC(CCC#N)C(=O)O (centres unmarked) [Compound 8, 2-(2-cyanoethyl)-4-methyl-5-oxohexanoic acid] |  |  |  |  | 23 | 16 | 7.30 to 9.30 |  |  |  | remaining activity at 0.0005 µM ([2]; compound concentration 0.5 nM, control = BCAT1 activity in the absence of an inhibitor): 47%
